Marks after values point to notes of the source that are not given here.
Key:
[1] = test system: immobility in the mouse forced swim test; assay: Mouse forced swim test; assay type: in vivo; details: mice, time immobile during last 3 min of 6 min swim, vehicle = 100
Method: Subjects. Male NMRI mice (Charles River) weighing 23-25 g are used. […] 8 mice are used pr experimental group.
Experimental procedure. The mice are placed in 2000 ml beaker containing 1200 ml of tempered water (25° C.) and left to swim for 6 min. The performance of the mice is videorecorded, digitalized and analysed by means of a digital analysis system (Bioobserve). The time spent immobile for the last 3 min. of the test session is quantified for each mouse.
Analyses. […] A post-hoc test (Student-Newman-Keuls) is employed when appropriate. P-levels <0.05 were considered significant.

[2] = test system: dopaminergic neurons in the ventral tegmental area; assay: Spontaneous DA cell firing in the VTA of anaesthetised rats (extracellular single-cell recordings); details: mean ± SEM
Method: Subjects. Male Wistar rats (Harlan, The Netherlands) weighing 270-340 g are used. The animals are housed under a 12-hr light/dark cycle under controlled conditions for regular in-door temperature (21±2° C.) and humidity (55±5%) with food and tap water available ad libitum.
Administration of compound. […] These i.v. doses match the s.c. dose range of 0-10 mg/kg.
Statistical analysis. Drug effects are assessed by statistical comparison of the mean firing rate calculated from the 2-3 min period immediately before the first drug administration (baseline) to the mean firing rate calculated from at least 60 s at the maximal drug effect. Data are analysed statistically by a one-way analysis of variance (ANOVA) followed by Student-Newman-Keuls post hoc test. A p-value less than 0.05 is considered significant.

[3] = test system: extracellular DA levels in the nucleus accumbens; assay: Microdialysis: amphetamine-evoked DA levels in the nucleus accumbens of freely moving rats; assay type: in vivo, rat; details: for Normalised DA level in the nucleus accumbens: compound 5 mg/kg s.c., D-amphetamine 0.5 mg/kg s.c. 30 min later; for Effect on the basal extracellular DA level in the nucleus accumbens: without amphetamine, data not shown
Method: Subjects. Male Sprague-Dawley rats (Charles River), initially weighing 275-300 g, are used.
Surgery. Animals are anaesthetized with hypnorm/dormicum (2 ml/kg s.c.) and intracerebral guide cannulas (CMA/12) are stereotaxically implanted, positioning the dialysis probe tip in the nucleus accumbens (co-ordinates: 1.7 mm anterior to bregma, −1.2 mm lateral to bregma, 8.0 mm ventral to the dura). Anchor screws and acrylic cement is applied for fixation of the guide cannula. The body temperature of the animals is maintained at 37° C. by means of a rectal probe and a heating plate. The rats are allowed to recover from surgery for 2 days, housed singly in cages.
Experimental procedure. On the day of the experiment, a microdialysis probe (CMA/12, 0.5 mm diameter, 2 mm length) is inserted through the guide cannula of the conscious animal. The probes are connected to a microinjection pump via a dual channel swivel which allowed the animals unrestricted movements. Perfusion of the microdialysis probe with filtered Ringer solution (145 mM NaCl, 3 mM KCl, 1 mM MgCl2, 1.2 mM CaCl2) is maintained for the duration of the experiment at a constant flow rate of 1 μL/min. After 180 min of stabilisation, the experiments are initiated. Dialysates are collected every 20 min. After the experiments the rats are sacrificed by decapitation, their brains removed, frozen and sliced for probe placement verification.
Administration of compounds. […] Thirty minutes later, D-amphetamine sulphate (0.5 mg/kg s.c.) is administered.
Analysis of dialysate. The concentration of DA in the dialysates is assessed by means of HPLC with electrochemical detection. The dialysate constituents are separated by reverse phase liquid chromatography (ODS 150×3 mm, […]). Mobile phase consists of 90 mM NaH2PO4, 50 mM sodium citrate, 367 mg/l sodium 1-octanesulfonic acid, 50 μM EDTA and 8% acetonitrile (pH 4.0) at a flow rate of 0.5 ml/min. Electrochemical detection of DA is accomplished using a coulometric detector; potential set at E1=−75 mV and E2=300 mV (guard cell at 350 mV) (Coulochem II, ESA). The dialysate levels of DA in the three dialyse samples preceding the administration of compound are averaged and used as baseline level of DA (100%)
Statistical analysis. The dialysate levels of DA in the three dialyse samples preceding the administration of compound are averaged and used as baseline level of DA (100%). Data are analysed using repeated measure analyses of variance followed by post hoc tests (Tukey test), when appropriate. *P<0.05 were considered significant.

[4] = test system: conditioned avoidance response; assay: Conditioned avoidance response in rats; assay type: in vivo, rat; details: Rattus norvegicus, sc, rats, read-out: % inhibition of avoidance (Std. dev.) Relative to baseline; for inhibition at 2.5 mg/kg: 2.5 mg/kg s.c. 30 min before the test; for inhibition at 5 mg/kg: 5 mg/kg s.c. 30 min before the test
Method: Subjects. Male Wistar rats (Taconic, Denmark) weighing 150 g at the beginning of the study are used. The rats are housed in pairs and maintained on a 12 h light/dark cycle (lights on 06:00). The animals are fed once daily (approx. 6 pellets/rat) in order to keep the rats at 80% of their free-feeding weight. Water is available ad libitum. Temperature (21±1° C.) and relative humidity (55±5%) are automatically controlled.
Experimental procedure. Conditioned avoidance testing is conducted using four automated shuttle-boxes (ENV-010M, MED-Associates) each placed in a sound-attenuated chamber. Each box is divided into two compartments by a partition with an opening. The position of the animal and crossings from one compartment to the other are detected by two photocells placed on either side of the dividing wall. Upon presentation of the conditioned stimuli (CS), tone and light, the animals have 10s to cross to the other compartment of the shuttle-box in order to turn the CS off (end the trial) and avoid the appearance of the unconditioned stimulus (UCS). If the rat remains in the same compartment for more than 10s, the UCS is presented as 0.5 mA scrambled foot-shocks until escape is performed or 10s in maximal duration. The following behavioural variables are evaluated: avoidance (response to CS within 10s); escape (reponse to CS+UCS); escape failures (failure to respond); intertrial crosses and locomotor activity. The rats are habituated to the shuttle-box 3 min before each test session. During training each test session consists of 30 trials with intertrial intervals varying randomly between 20s and 30s. Training is carried out until the rats display an avoidance of 80% or more, on 3 consecutive days. A test is preceded by a pre-test the day before giving rise to a baseline value for each animal, thus the animals serve as their own control. Seven to eight rats are used at each dose level. A parallel control group receiving the vehicle of the test compound is also included.
Administration of compound. […] All compounds are dissolved in a vehicle of 10% 2-hydroxy-propyl-beta-cyclodextrin (isotonic with glucose, pH 5-7).
Statistical analyses. The effects of compounds on avoidance and escape failure behaviours are statistically evaluated by means of two-way repeated measures ANOVA followed by post hoc comparisons (Student-Newman-Keuls Method) when appropriate. P-levels <0.05 are considered statistically significant.

[5] = test system: d-amphetamine induced hyperactivity in rats; assay: Amphetamine-induced hyperactivity in the rat (amphetamine antagonism); assay type: in vivo; details: read-out: Amphetamine antagonism ED50 (mg/kg) ± std. dev.
Description: Subjects. Male Wistar rats (Taconic, Denmark) weighing 170-240 g are used. […] Eight rats are used at each dose level and in the parallel control group receiving the vehicle to the test compound plus d-amphetamine and the group receiving vehicle injections only.

[6] = 2.5 mg/kg s.c. 30 min before test
[7] = 5.0 mg/kg s.c. 30 min before test

Compound	Immobility in % (±S.D.) ([1]; 1.3 mg/kg)	Immobility in % (±S.D.) [1, 6]	Immobility in % (±S.D.) [1, 7]	Spontaneous DA cell firing rate in the VTA ([2]; cumulated dose 0.03 mg/kg i.v.)	Spontaneous DA cell firing rate in the VTA ([2]; cumulated dose 0.1 mg/kg i.v.)	Normalised DA level in the nucleus accumbens ([3]; Time 0 min (baseline sample))	Normalised DA level in the nucleus accumbens ([3]; Time 20 min)	Normalised DA level in the nucleus accumbens ([3]; Time 40 min)	Normalised DA level in the nucleus accumbens ([3]; Time 60 min)	Normalised DA level in the nucleus accumbens ([3]; Time 80 min)	Normalised DA level in the nucleus accumbens ([3]; Time 100 min)	Normalised DA level in the nucleus accumbens ([3]; Time 120 min)	Normalised DA level in the nucleus accumbens ([3]; Time 140 min)	Normalised DA level in the nucleus accumbens ([3]; Time −20 min (baseline sample))	Normalised DA level in the nucleus accumbens ([3]; Time −40 min (baseline sample))	Effect on the basal extracellular DA level in the nucleus accumbens [3]	inhibition at 2.5 mg/kg [4]	inhibition at 5 mg/kg [4]	further results
Cc1cc(N2CCOCC2)cc(C)c1NC(=O)CC1CCCC1	97.5 (6.3) %	97 (6.7) %	81.0 (18)* %	95.1 ± 1.9 (4) percentage of baseline firing rate	88.2 ± 2.8 (5) percentage of baseline firing rate	99 ± 4 % of baseline	125 ± 9 % of baseline	264 ± 39 % of baseline	265 ± 17* % of baseline	231 ± 22 % of baseline	167 ± 25 % of baseline	109 ± 11 % of baseline	93 ± 15 % of baseline	106 ± 5 % of baseline	95 ± 6 % of baseline	None of the latter three compounds significantly affects the basal extracellular DA level	5%	65%	Spontaneous DA cell firing rate in the VTA ([2]; cumulated dose 0.3 mg/kg i.v.): 74.6 ± 3.6 (4) percentage of baseline firing rate; Spontaneous DA cell firing rate in the VTA ([2]; cumulated dose 0.6 mg/kg i.v.): 64.1 ± 7.1 (2) percentage of baseline firing rate; Spontaneous DA cell firing rate in the VTA ([2]; cumulated dose 0.9 mg/kg i.v.): 55.8 ± 6.5 (2) percentage of baseline firing rate
Cc1cc(N2CCOCC2)cc(C)c1NC(=O)CC(C)(C)C	102 (4.6) %	96.7 (7.5) %	82.3 (20)* %	89.8 ± 4.5 (5) percentage of baseline firing rate	81.0 ± 4.0 (5) percentage of baseline firing rate	91 ± 4 % of baseline	112 ± 12 % of baseline	227 ± 46 % of baseline	262 ± 53* % of baseline	195 ± 38* % of baseline	172 ± 24 % of baseline	166 ± 32 % of baseline	129 ± 35 % of baseline	100 ± 3 % of baseline	108 ± 5 % of baseline	None of the latter three compounds significantly affects the basal extracellular DA level	1%	71%	Spontaneous DA cell firing rate in the VTA ([2]; cumulated dose 0.25 mg/kg i.v.): 74.1 ± 6.3 (4) percentage of baseline firing rate; Spontaneous DA cell firing rate in the VTA ([2]; cumulated dose 0.5 mg/kg i.v.): 68.1 ± 6.0 (4) percentage of baseline firing rate; Spontaneous DA cell firing rate in the VTA ([2]; cumulated dose 1.0 mg/kg i.v.): 57.1 ± 7.9 (3) percentage of baseline firing rate
Cc1cc2c(s1)Nc1ccccc1N=C2N1CCN(C)CC1 [Olanzapine, reference compound]	95 (11) %	–	–	–	–	–	–	–	–	–	–	–	–	–	–	–	–	–	Immobility in % (±S.D.) ([1]; 0.31 mg/kg): 96 (14) %; ED50 [5]: 0.21 mg/kg

— patent US20100256145A1, “USE OF KCNQ POTASSIUM CHANNEL OPENERS FOR REDUCING SYMPTOMS OF OR TREATING DISORDERS OR CONDITIONS WHEREIN THE DOPAMINERGIC SYSTEM IS DISRUPTED” (H. LUNDBECK A/S, priority 2007, published 2010)
